Laboratory results taken from US20120179089A1, “SUBSTITUTED BIPYRIDINES FOR USE IN ORGANIC LIGHT-EMITTING DEVICES” (Nitto Denko Corporation, priority 2010, published 2012).

How the values were obtained:
[1] = system: CHO-K1 (Chinese Hamster Ovarian Cancer, ATCC, CRL-2243) cell line; assay: Conversion of ALA to protoporphyrin IX (PpIX) in cells, fluorescence emission; assay type: cell-based; conditions: ALA 1 mM and 2 mM, about 16 hrs at 37° C.; fluorescence emission at 635 nm
[2] = system: CHO-K1 (Chinese Hamster Ovarian Cancer, ATCC, CRL-2243) cell line; assay: Efficacy study: ALA plus red OLED light, MTT cell viability; assay type: cell-based; conditions: ALA about 1 mM or higher, 16 hrs incubation, OLED light (630 nm) dose of 30 J/cm^2, FIG. 10
[3] = system: CHO-K1 cells; assay: Optical microscope images of cells after red light irradiation; assay type: cell-based, Chinese Hamster; conditions: ALA treated CHO-K1 cells after 30 J/cm^2 red light (630 nm) irradiation; FIG. 9B
[4] = Solubility observed on isolation; assay type: physicochemical
Procedure: 6,6′-di(benzo[d]thiazol-2-yl)-3,3′-bipyridine (17). A mixture of 9 (0.591 g, 2.03 mmol), 16 (0.700 g, 2.07 mmol), tetrakis(triphenylphosphine)palladium(0) (117 mg, 102 μmol), Na2CO3 (1.59 g, 15.0 mmol), H2O (15 mL) and THF (25 mL) was degassed with argon for about 20 min while stirring. The stirring reaction mixture was then maintained under argon at about 80° C. for about 19 h. Upon completion, the mixture was cooled to RT, filtered and the precipitate collected as a white solid (0.83 g, 97%).
2-(6′-(benzo[d]thiazol-2-yl)-3,3′-bipyridin-6-yl)benzo[d]oxazole (18). Following the procedure for 17, 11 (0.558 g, 2.03 mmol), 16 (0.700 g, 2.07 mmol),), tetrakis(triphenylphosphine)palladium(0) (117 mg, 102 μmol), Na2CO3 (1.59 g, 15.0 mmol), H2O (15 mL) and THF (25 mL) yielded an insoluble white solid (0.70 g, 84%) after filtration.

[5] = system: presumed ocular histoplasmosis; design: species or system person; conditions: in vivo, iv
[6] = system: age-related macular degeneration; assay: Phototherapy of age-related macular degeneration with red light emitting OLED; assay type: in vivo, person; conditions: about 6 mg/m^2 intravenously; retina illuminated about 15 minutes after start of infusion
[7] = system: pathological myopia; assay: Phototherapy of pathological myopia with red light emitting OLED; assay type: in vivo, person; conditions: about 6 mg/m^2 intravenously; retina illuminated about 15 minutes after start of infusion

## NCC(=O)CCC(=O)O [ALA, 5-aminolevulinic acid]
[1]
  generation of PpIX: confirmed
[2]
  cell death: ≥ 90%
[3]
  cell morphology / cell death by optical microscope: significant cell death

## c1ccc2sc(-c3ccc(-c4ccc(-c5nc6ccccc6s5)nc4)cn3)nc2c1 [Compound 17, 6,6′-di(benzo[d]thiazol-2-yl)-3,3′-bipyridine]
[4]
  solubility: insoluble in numerous common organic solvents

## c1ccc2oc(-c3ccc(-c4ccc(-c5nc6ccccc6s5)nc4)cn3)nc2c1 [Compound 18, 2-(6′-(benzo[d]thiazol-2-yl)-3,3′-bipyridin-6-yl)benzo[d]oxazole]
[4]
  solubility: insoluble

## C=Cc1c(C)c2cc3nc(cc4[nH]c(cc5nc(cc1[nH]2)C(C)=C5CCC(=O)O)c(CCC(=O)OC)c4C)[C@@]1(C)C3=CC=C(C(=O)OC)[C@H]1C(=O)OC [Verteporphin]
[5]
  patient's vision: anticipated to be stabilized
[6]
  patient's vision: anticipated to be stabilized
[7]
  patient's vision: anticipated to be stabilized
